Legend:
[1] = tested on: Caco-2 (colon, adenocarcinoma; human) cell monolayer; experiment: Caco-2 permeation assay (in vitro model of oral bioavailability); format: in vitro ADME; details: 100 μM test compound, 37° C., 60 min
Protocol: Assay 5: In Vitro Model of Oral Bioavailability: Caco-2 Permeation Assay
The Caco-2 permeation assay was performed to model the ability of test compounds to pass through the intestine and get into the blood stream after oral administration. The rate at which test compounds in solution permeate a cell monolayer designed to mimic the tight junction of human small intestinal monolayers was determined.
Caco-2 (colon, adenocarcinoma; human) cells were obtained from ATCC (American Type Culture Collection; Rockville, Md.). For the permeation study, cells were seeded at a density of 63,000 cells/cm^2 on pre-wetted transwells polycarbonate filters (Costar; Cambridge, Mass.). A cell monolayer was formed after 21 days in culture. Following cell culture in the transwell plate, the membrane containing the cell monolayer was detached from the transwell plate and inserted into the diffusion chamber (Costar; Cambridge, Mass.). The diffusion chamber was inserted into the heating block which was equipped with circulating external, thermostatically regulated 37° C. water for temperature control. […]
The permeation study was performed with test compound concentrations at 100 μM and with ^14C-mannitol to monitor the integrity of the monolayer. […] Samples were analyzed by HPLC or liquid scintillation counting for test compound and mannitol concentrations. The permeation coefficient (Kp) in cm/sec was calculated. […]

[2] = molecular target: T1, human 5-HT3A receptor (Homo sapiens, UniProt P46098); experiment: Radioligand binding assay on 5-HT3A human receptors: determination of receptor subtype selectivity; details: [3H]-GR65630 at 0.50 nM for 5-HT3A
T1 construct: host or cells: HEK-293
T1 sequence (P46098 24-478): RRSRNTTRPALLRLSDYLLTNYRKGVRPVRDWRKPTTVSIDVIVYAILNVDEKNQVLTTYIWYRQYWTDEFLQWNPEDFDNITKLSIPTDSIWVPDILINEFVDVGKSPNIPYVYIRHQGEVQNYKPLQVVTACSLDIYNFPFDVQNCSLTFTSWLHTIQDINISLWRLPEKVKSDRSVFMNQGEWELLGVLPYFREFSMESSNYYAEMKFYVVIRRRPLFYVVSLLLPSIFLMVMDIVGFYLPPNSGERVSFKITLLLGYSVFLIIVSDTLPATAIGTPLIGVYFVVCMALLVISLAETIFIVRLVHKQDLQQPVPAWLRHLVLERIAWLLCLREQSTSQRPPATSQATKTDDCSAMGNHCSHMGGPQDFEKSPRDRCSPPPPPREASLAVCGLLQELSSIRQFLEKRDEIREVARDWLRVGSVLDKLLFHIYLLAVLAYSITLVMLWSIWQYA
Protocol: Assay 2: Radioligand Binding Assay on 5-HT3A Human Receptors: Determination of Receptor Subtype Selectivity
a. Membrane Preparation 5-HT3A
HEK-293 (human embryonic kidney) cells stably-transfected with human 5-HT3A receptor cDNA were obtained from Dr. Michael Bruess (University of Bonn, […]) (Bmax=˜[…] protein, as determined using [^3H]-GR65630 membrane radioligand binding assay). […]
Radioligand binding assays were performed in 96-well polypropylene assay plates in a total assay volume of 200 μL containing 1.5-2 μg membrane protein in 50 mM HEPES pH 7.4, containing 0.025% BSA assay buffer. […] Non-specific binding was determined in the presence of 10 μM unlabeled MDL72222. […] Filter plates were washed three times with filtration buffer (ice-cold 50 mM HEPES, pH7.4) to remove unbound radioactivity. Plates were dried, 35 μL Microscint-20 liquid scintillation fluid (Packard BioScience Co., Meriden, Conn.) was added to each well and plates were counted in a Packard Topcount liquid scintillation counter (Packard BioScience Co., Meriden, Conn.).
Binding data were analyzed using the non-linear regression procedure described above to determine Ki values. The BOTTOM (curve minimum) was fixed to the value for nonspecific binding, as determined in the presence of 10 μM MDL72222. The quantity [L] in the Cheng-Prusoff equation was defined as the concentration [^3H]-GR65630. […]

With `CC(C)n1c(=O)n(C(=O)N[C@H]2C[C@H]3CC[C@@H](C2)N3CCCOC(=O)N2CCN(C(=O)C3CCCO3)CC2)c2ccccc21` (stereo partly drawn) [Example 1, 4-(tetrahydrofuran-2-carbonyl)piperazine-1-carboxylic acid 3-{(1S,3R,5R)-3-[(3-isopropyl-2-oxo-2,3-dihydrobenzoimidazole-1-carbonyl)amino]-8-aza-bicyclo[3.2.1]oct-8-yl}propyl ester] the “Kp value (permeation coefficient)” value [1] was 60 ×10⁻⁶ cm/s and the “5-HT4/5-HT3 receptor subtype selectivity, ratio Ki(5-HT3A)/Ki(5-HT4(c))” value [2] was 160.
